Laboratory results taken from US20040097420A1, “Proteasome regulation of NF-kB activity” (Harvard College, priority 1994, published 2004).
Non-standard residues stand in square brackets, D forms with d. Residues, ends and D or L forms follow the SMILES beside them. *: point of attachment. Nle = CCCC[C@H](N)C(=O)O; Cbz = O=C(OCc1ccccc1)*

Key:
26S proteasome = target: T1, 26S proteasome (Oryctolagus cuniculus, UniProt G1T4Q9); assay: Inhibition of the 26S proteasome (kinetic experiments, Ki); format: biochemical; conditions: Rabbit muscle; substrate Suc-LLVY-AMC; [Mg:ATP] = 2 mM
T1 sequence (G1T4Q9 1-263): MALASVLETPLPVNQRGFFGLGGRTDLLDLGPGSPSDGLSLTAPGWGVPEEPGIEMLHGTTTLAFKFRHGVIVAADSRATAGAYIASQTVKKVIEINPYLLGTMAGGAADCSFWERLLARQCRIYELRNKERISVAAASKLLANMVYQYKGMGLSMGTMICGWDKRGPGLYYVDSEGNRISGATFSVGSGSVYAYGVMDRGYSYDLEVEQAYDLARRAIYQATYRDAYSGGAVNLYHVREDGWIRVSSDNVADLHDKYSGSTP
Excerpt: (§1) Tables I-III summarize results from kinetic experiments that measured the inhibition of the 20S and 26S proteasomes, as well as cathepsin B and calpain. In these tables, Ki values are reported, which are dissociation constants for the equilibrium that is established when enzyme and inhibitor interact to form the enzyme:inhibitor complex.
(§2) The substances and assay conditions are briefly summarized in the footnotes to Table I. MG 101 and MG 102, also known as Calpain Inhibitor I and II, were purchased from Calbiochem as catalogue products.

cathepsin B = target: T2, cathepsin B (Bos taurus, UniProt P07688); assay: Inhibition of cathepsin B (Ki); format: biochemical; conditions: Bovine spleen; substrate Z-RR-AMC; [DTT] = 2 mM, [EDTA] = 5 mM, pH 5.5, 37° C.; read-out: Ki Cat B
T2 construct: Bovine spleen; Substrate: Z-RR-AMC; from tissue; host or cells: bovine spleen
Excerpt: as §1

[1] = target: calpain, 80 kD catalytic subunit; assay: Inhibition of calpain (Ki); format: biochemical; conditions: Rabbit muscle, substrate Suc-LLVY-AMC, [CaCl2] = 1 mM, [DTT] = 2 mM, pH 7.8, 20° C.
Excerpt: as §1

[2] = target: T3, chymotrypsin-like activity of the proteasome (UniProt Q32KL2); conditions: slow binding inhibitors; Vinitsky et al., Biochemistry 31:9421-9428 (1992); cited from earlier work
T3 sequence (Q32KL2 1-263): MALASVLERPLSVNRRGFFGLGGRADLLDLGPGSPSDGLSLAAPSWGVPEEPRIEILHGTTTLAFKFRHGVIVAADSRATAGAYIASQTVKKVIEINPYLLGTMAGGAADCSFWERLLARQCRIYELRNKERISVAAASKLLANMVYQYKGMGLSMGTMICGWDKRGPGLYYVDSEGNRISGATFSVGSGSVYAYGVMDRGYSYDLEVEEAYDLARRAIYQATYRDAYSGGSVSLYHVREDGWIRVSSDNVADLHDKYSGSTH

20S Proteasome [3] = target: T4, 20S Proteasome (Oryctolagus cuniculus, UniProt G1T4Q9); assay: Inhibition of the 20S proteasome (kinetic experiments, Ki); format: biochemical, Rabbit; set-up: Ki 20 S; substrate Suc-LLVY-AMC; conditions: Rabbit muscle, SDS-activated; substrate Suc-LLVY-AMC
T4 sequence (G1T4Q9 1-263): T1 sequence (G1T4Q9 1-263)
Excerpt: as §1, §2
Table V summarizes data for the inhibition of the 20S proteasome by various tripeptide aldehyde inhibitors.

PC12 cells = conditions: Tsubuki et al. (1993); cited from earlier work
20S Proteasome [4] = target: T4, 20S Proteasome; assay: MG 101 inhibition of muscle 20S proteasome (Table IV); format: biochemical; conditions: enzyme preparation: 20S Proteasome (muscle)
26S Proteasome Complex = target: T5, 26S Proteasome Complex (Oryctolagus cuniculus, UniProt G1T4Q9); assay: MG 101 inhibition of muscle 26S proteasome complex (Table IV); format: biochemical; conditions: enzyme preparation: 26S Proteasome Complex (muscle)
T5 sequence (G1T4Q9 1-263): T1 sequence (G1T4Q9 1-263)

[5] = target: T6, 20S Proteasome + Muscle 180 kDa Activator (Oryctolagus cuniculus, UniProt G1T4Q9); assay: MG 101 inhibition of 20S proteasome + muscle 180 kDa activator (Table IV); format: biochemical; conditions: enzyme preparation: 20S Proteasome + Muscle 180 kDa Activator
T6 sequence (G1T4Q9 1-263): T1 sequence (G1T4Q9 1-263)

20S Proteasome ± SDS = target: T7, 20S Proteasome ± SDS (Oryctolagus cuniculus, UniProt G1T4Q9); assay: MG 101 inhibition of 20S proteasome with SDS (Table IV); format: biochemical; conditions: enzyme preparation: 20S Proteasome ± SDS
T7 sequence (G1T4Q9 1-263): T1 sequence (G1T4Q9 1-263)

[6] = test system: p60Tth processing by proteasome; assay: In vitro processing of p60Tth with purified proteasomes / extract; format: biochemical; conditions: processing reaction with purified 20/26S proteasomes or fraction II and Pr−(II) extract
Description: The p60Tth precursor (or p105) was translated in wheat germ extract. The substrate protein was mixed with HeLa cell cytoplasmic extract (S100) in a processing buffer containing 12 mM Tris, pH 7.5, 60 mM KCl, 20 mM creatine phosphate, 3.5 mM MgCl2 and 1 mM ATP. After incubation at 30° C for one hour, the reaction mixtures were subjected to immunoprecipitation with anti-p50 Ab and the proteins were resolved by SDS-PAGE. In the Apyrase treated sample, the p60 was incubated with 10 U of enzyme at 37° C. for 30 minutes to inactivate residual ATP in the wheat germ extract before adding the HeLa cell S100.
Increasing amounts of purified 20/26S proteasomes or a proteasome-enriched fraction from reticulocyte lysate, fraction II, were added alone or were combined with Pr^−(II) extract in a processing reaction (see Example 4). In addition, processing was inhibited by ATPγS, a non-hydrolyzable analogue of ATP that allows ubiquitination but inhibits proteasome function (lanes 3-5).

Compound | Ki (26S proteasome) [nM] | Ki (cathepsin B) [nM] | Ki [1] [nM] | Ki [2] [nM] | Ki (20S Proteasome [3]) [nM] | also measured
CC(C)C[C@H](NC(=O)OCc1ccccc1)C(=O)N[C@@H](CC(C)C)C(=O)N[C@H](C=O)Cc1ccccc1 [MG 110, Z-Leu-Leu-Phe-H] (Cbz-Leu-Leu-Phe-aldehyde) | 180 | 100 | 62 | 460 | 48 | 
CC(C)C[C@@H](C=O)NC(=O)[C@H](CC(C)C)NC(=O)[C@H](CC(C)C)NC(=O)OCc1ccccc1 [benzyloxycarbonyl(Z)-Leu-Leu-leucinal, Z-L-Leucine-L-Leucine-L-Leucinal] (Cbz-Leu-Leu-Leu-aldehyde) |  |  |  |  |  | optimal concentration initiating neurite outgrowth (PC12 cells): 30 nM
CCCC[C@@H](C=O)NC(=O)[C@H](CC(C)C)NC(=O)[C@H](CC(C)C)NC(C)=O [MG 101, Ac-Leu-Leu-Nle-H] (Ac-Leu-Leu-[Nle]-aldehyde) | 1000 | 6 | 5 | 5700 | 140 | Ki (20S Proteasome [4]): 7000 nM; Ki (26S Proteasome Complex): 3000 nM; Ki [5]: 600 nM; Ki (20S Proteasome ± SDS): 140 nM
CSCC[C@@H](C=O)NC(=O)[C@H](CC(C)C)NC(=O)[C@H](CC(C)C)NC(C)=O [Ac-LLM-H, N-acetyl-Leu-Leu-methioninal] (Ac-Leu-Leu-Met-aldehyde) |  |  |  | 33000 |  | 
Nc1ncnc2c1ncn2[C@@H]1O[C@H](COP(=O)(O)OP(=O)(O)OP(O)(O)=S)[C@@H](O)[C@H]1O [ATPγS] |  |  |  |  |  | effect on p60Tth processing in vitro [6]: inhibited
